The values that follow are results of earlier work, collected in US12269021B2, “Artificial protein catalyst” (Glytech, Inc., priority 2019, dated 2025).

Data set [1] concerns various cancer cell strains.
The next data set relates to αvβ3 and αvβ5 integrins. To be noted: integrins overexpressed on the cancer cell surface.

`CC(C)=CCC/C(C)=C/CC/C(C)=C/COc1ccc2ccc(=O)oc2c1` [Umbelliprenin]: in data set [1], the cytotoxic activity result is given as “cytotoxic activity”.

Regarding cRGD, in the data set on αvβ3 and αvβ5 integrins, the integrin inhibition entry was “inhibits”.
